One data set can be described thus: physchem. The format is physicochemical. The note with it: 25°C, read-out: solubilité de la carbamazépine. On the procedure:
Dans cet exemple on évalue la solubilisation de la carbamazépine par différents dérivés de cyclodextrines dans des conditions standardisées. Les mesures de solubilité sont réalisées à 25°C en présence de la cyclodextrine considérée à la concentration de 25 mmol/l, le pH de la solution étant ajusté dans tous les cas à 7,4 pour simuler autant que posible les conditions physiologiques.

The conditions of data set [1]: 25°C; cited from earlier work.
A short description of a further data set: in vitro. The note with it: human, erythrocytes, pH 7.
Data set [2] is described as follows: Solubility in water of the cyclodextrin. The format is physicochemical. The note with it: 20°C, read-out: solubilité dans l'eau.
Data set [3] can be described thus: pH of an aqueous solution of the hydrochloride. To be noted: solution à 1 % en poids du chlorhydrate dans de l'eau. The format is physicochemical.
For data set [4], the system named is rat Sprague-Dawley mâle et femelle. The data set can be described thus: Acute toxicity, intravenous injection. The format is in vivo. The note with it: voie intraveineuse, chlorhydrate, 2g/kg de poids corporel.
A further data set concerns Escherichia Coli. The data set can be described thus: Ames test, mutagenicity. The format is cell-based. The note with it: test de AMES, souches d'Escherichia Coli. For orientation: In the Ames test, an excess of revertant colonies over the control signals mutagenicity.
In a further data set the test system is Salmonella typhimurium. The data set can be described thus: Ames test, mutagenicity. The format is cell-based. The note with it: test de AMES, souches de Salmonella typhimurium.

For orientation: HC50 means the concentration giving 50% haemolysis. Lower therefore signals more damage to red cells.

≈ marks a conversion by molar mass, not a printed value. Where “and” joins values, the source holds several entries; their conditions need not be identical. Identical values can stand only once.

Method for in vitro: Les propriétés hémolytiques du chlorhydrate ont été testées en mettant en contact 0,4 ml d'une suspension d'érythrocytes humains avec 4 ml de la solution du chlorhydrate dans 10 mmol d'un tampon phosphate isotonique à un pH de 7,4, pendant 30 minutes à 37°C.

With `NC(=O)N1c2ccccc2C=Cc2ccccc21` [Carbamazépine, carbamazépine], the solubility was less than 70 µM in the data set “physchem” (phosphate buffer, pH 7.4, aqueous buffer, Tampon Phosphate 7,4, without cyclodextrin) and less than 50 µM in “physchem” (pure water, water, Eau pure, without cyclodextrin). Also, in data set [1], the “solubilité dans l'eau pure” value was 12 µg/mL.
`OC[C@H]1O[C@@H]2O[C@H]3[C@H](O)[C@@H](O)[C@@H](O[C@H]4[C@H](O)[C@@H](O)[C@@H](O[C@H]5[C@H](O)[C@@H](O)[C@@H](O[C@H]6[C@H](O)[C@@H](O)[C@@H](O[C@H]7[C@H](O)[C@@H](O)[C@@H](O[C@H]8[C@H](O)[C@@H](O)[C@@H](O[C@H]1[C@H](O)[C@H]2O)O[C@@H]8CO)O[C@@H]7CO)O[C@@H]6CO)O[C@@H]5CO)O[C@@H]4CO)O[C@@H]3CO` [β-CD, β-cyclodextrine, reference compound]: the HC50 at 0.5 h in “in vitro” was 5 mM and ~6000 µg/mL.
With `NC[C@H]1O[C@@H]2O[C@H]3[C@H](O)[C@@H](O)[C@@H](O[C@H]4[C@H](O)[C@@H](O)[C@@H](O[C@H]5[C@H](O)[C@@H](O)[C@@H](O[C@H]6[C@H](O)[C@@H](O)[C@@H](O[C@H]7[C@H](O)[C@@H](O)[C@@H](O[C@H]8[C@H](O)[C@@H](O)[C@@H](O[C@H]1[C@H](O)[C@H]2O)O[C@@H]8CO)O[C@@H]7CO)O[C@@H]6CO)O[C@@H]5CO)O[C@@H]4CO)O[C@@H]3CO` [β-CD-NH2, mono-6-amino-β-cyclodextrine], the solubility in data set [2] stood at 200 mg/mL (≈ 176 mM). For the same compound, in data set [3], the pH is recorded as 6,8. For the same compound, the mortalité result in data set [4] is reported as “aucune mortalité”. For the same compound, the “activité mutagène” value in the data set with Escherichia Coli and with Salmonella typhimurium was “aucune activité mutagène” in each case. Also, in “in vitro”, the HC50 at 0.5 h is ~30 mM and ~35000 µg/mL.

The values above are taken from patent EP0735879B1, “USE OF AMINO CYCLODEXTRINS FOR THE AQUEOUS SOLUBILISATION OF DIBENZAZEPINES FOR USE AS AN ANTIEPILEPTIC AGENT” (COMMISSARIAT A L'ENERGIE ATOMIQUE, priority 1993, dated 1995).
